# In paper PMC9506480, “Synthesis and Evaluation of Antiproliferative Activity, Topoisomerase IIα Inhibition, DNA Binding and Non-Clinical Toxicity of New Acridine–Thiosemicarbazone Derivatives” (Pharmaceuticals, 2022):
# “Also recorded” adds a separate entry of the source.
# Columns and labels:
# [1] = test system: B16-F10 (murine melanoma); assay: Alamar blue cytotoxicity assay, B16-F10; format: cell-based; conditions: Mus musculus, 72 h incubation
# Procedure: (§1) The in vitro cytotoxic activity of the compounds (Table 1) was evaluated against cancer cell lines HCT116 (human colon carcinoma), HepG2 (human hepatocellular carcinoma), B16F10 (murine melanoma carcinoma) and non-cancerous cell line MRC-5 (human lung fibroblast) using the Alamar blue assay after 72 h of incubation; doxorubicin (DOX) was used as a positive control. The unsubstituted derivatives on the acridine cores were encoded as CL, and the disubstituted derivatives as DL.
# (§2) The human cancer cell lines HCT116 (colon carcinoma) and HepG2 (hepatocellular carcinoma), the mouse cancer cell line B16-F10 (melanoma), and the non-cancerous human cell line MRC-5 (lung fibroblast) were obtained from the American Type Culture Collection (ATCC, Manassas, VA, USA) and cultured according to the ATCC animal cell culture guide. All cell lines tested negative for mycoplasma using a mycoplasma stain kit.
# (§3) Cell viability was measured using the Alamar blue assay, as previously described. Cells were seeded in 96-well plates for all experiments. The compounds were dissolved in dimethyl sulfoxide (DMSO, Sigma-Aldrich) and added to each well in eight serial concentrations ranging from 0.19 to 25 μg/mL. As a positive control, doxorubicin was used. After 72 h of treatment, 20 μL of resazurin (0.312 mg/mL) was added to each well. A SpectraMax 190 Micro-plate Reader was used to measure absorbances at 570 and 595 nm (Molecular Devices, Sunnyvale, CA, USA). Nonlinear regression with 95% confidence intervals (CI 95%) was used to calculate the inhibitory concentration of 50% (IC50) using GraphPad Prism software (Intuitive Software for Science; San Diego, CA, USA).
# [2] = test system: HepG2 (human hepatocellular carcinoma); assay: Alamar blue cytotoxicity assay, HepG2; format: cell-based; conditions: 72 h incubation
# Procedure: as §1, §2, §3
# CT DNA = CT DNA binding by UV–Vis absorption spectroscopy; set-up: species or system calf; conditions: compound 40 µM, CT DNA 0 to 60 µM, Tris-HCl pH 7.4
# Procedure: Absorption spectroscopy is a convenient and simple method for probing the binding of small molecules to DNA. The interaction of selected acridine–thiosemicarbazone derivatives with CT DNA was studied in the 220–500 nm region. Binding constants (Kb) were calculated from [DNA]/(Ɛa − Ɛf) versus [DNA], in which Kb is given by the ratio of slope to the intercept. […] For this, the regions chosen were the ones with the highest absorption intensity above 300 nm, due to the lower interference in DNA absorption in this region (ESI, Figures S50 and S53).
# The concentration of the calf thymus, Type I, fibers (CT DNA), was determined based on the extinction coefficient of the absorbance at 260 nm (6600 L mol^−1 cm^−1). All compounds were dissolved in methanol (HPLC grade) at a concentration of 1 mmol L^−1 (stock solution). Working solutions were prepared by diluting the stock solution using Tris-HCl buffer (pH 7.4), with concentrations of 40 µmol L^−1. Under the optimized concentration, the compounds were titered with increasing concentrations of CT DNA (5 to 60 µmol L^−1). After shaking the system and incubating at room temperature for 10 min, the measurements were recorded using a JASCO J818 spectropolarimeter in the range of 220 to 500 nm at 298 K. The intrinsic bond constant (Kb) was obtained by adjusting the data according to the equation below:[DNA]/(Ɛa − Ɛf) = [DNA]/(Ɛb − Ɛf) + 1/[Kb (Ɛb − Ɛf)] where Ɛa, Ɛb and Ɛf are the apparent extinction coefficient of the compounds, the extinction coefficient of the compounds found in their […] and the extinction coefficient of the compounds when fully DNA-bound, respectively. The graph of [DNA]/(Ɛa − Ɛf) versus [DNA] was used to obtain the Kb from the ratio between the slope and the intercept, as previously described in the literature. Binding data were obtained using SigmaPlot 10.0 software. The study of possible DNA denaturation using methanol–water solutions was evaluated up to the maximum final concentration of methanol in the assays (6%) (ESI, Figures S50 and S53).
# [3] = test system: MRC-5 (human lung fibroblast); assay: Alamar blue cytotoxicity assay, non-cancerous MRC-5; format: cell-based; conditions: MRC5, 72 h incubation, non-cancerous cell
# Procedure: as §1, §2, §3
# [4] = test system: HCT116 (human colon carcinoma); assay: Alamar blue cytotoxicity assay, HCT116; format: cell-based; conditions: HCT-116, 72 h incubation
# Procedure: as §1, §2, §3
# [5] = biological target: T1, recombinant human topoisomerase IIα (p170) (Homo sapiens, UniProt P11388); assay: Human topoisomerase IIα inhibition assay (pUC19 plasmid relaxation); format: biochemical; conditions: for inhibition of Topo IIα enzymatic activity (in words) / % of enzyme inhibition: 100 µM; for % of enzyme inhibition / inhibition at 100 µM: densitometry, relative to positive control mAMSA, '-' = no inhibition; for inhibition at 100 µM: read-out: % of enzyme inhibition
# T1 construct: purchased Sigma-Aldrich
# Description: Several studies have shown the ability of acridines to inhibit topoisomerases, being considered the main mechanism responsible for the antiproliferative activities of this scaffold. The possibility of the new acridine derivatives to inhibit Topo IIα in its biological function of DNA double-strand relaxation was investigated in this work. This enzymatic inhibition can be accompanied by the presence of a supercoiled or relaxed DNA band, performed with the pUC19 plasmid, as shown in Figure 2. In this study, mAMSA was used as a positive inhibition control.
# For testing the ability of Topo IIα inhibition, the compounds were evaluated in the DNA plasmid relaxation assay. This test consists of evaluating the Topo IIα enzyme activity in the absence and presence of the compound, followed by electrophoresis analysis, as previously described by Almeida et al. (2016). Briefly, 100 ng pUC19 DNA plasmid (Sigma-Aldrich) and 4.0 units of recombinant human (p170) topoisomerase II (Sigma-Aldrich) in relaxation buffer without or with tested compounds were incubated for 30 min at 37 °C. The tested concentrations were […], and amsacrine (mAMSA) was used as a positive control. Reactions were terminated with 1% SDS and digested with proteinase K. Then, the reaction products were analyzed by electrophoresis gel stained with ethidium bromide and photographed under UV light. Quantitative evaluation (% of enzyme inhibition by compounds about the positive control mAMSA) of the gel bands corresponding to supercoiled DNA was performed by densitometry using image-processing software (Scion Image, version Beta 4.0.2.) according to Gouveia et al. (2018).
# Figure 2 Effects of mAMSA and its acridine derivatives on topoisomerase IIα activity. Effects of derivatives and positive control on the inhibition of human topoisomerase IIα. Native supercoiled pUC19 was incubated for 30 min at 37 °C with […] of human Topo IIα in the absence (lane 2) or presence of ligands at a concentration 100 μM. Inhibition of Topo IIα-induced DNA relaxation by mAMSA (lane 3) was used as a positive control. DNA samples were run on an agarose gel followed by ethidium bromide staining.
# T1 sequence (P11388 whole entry): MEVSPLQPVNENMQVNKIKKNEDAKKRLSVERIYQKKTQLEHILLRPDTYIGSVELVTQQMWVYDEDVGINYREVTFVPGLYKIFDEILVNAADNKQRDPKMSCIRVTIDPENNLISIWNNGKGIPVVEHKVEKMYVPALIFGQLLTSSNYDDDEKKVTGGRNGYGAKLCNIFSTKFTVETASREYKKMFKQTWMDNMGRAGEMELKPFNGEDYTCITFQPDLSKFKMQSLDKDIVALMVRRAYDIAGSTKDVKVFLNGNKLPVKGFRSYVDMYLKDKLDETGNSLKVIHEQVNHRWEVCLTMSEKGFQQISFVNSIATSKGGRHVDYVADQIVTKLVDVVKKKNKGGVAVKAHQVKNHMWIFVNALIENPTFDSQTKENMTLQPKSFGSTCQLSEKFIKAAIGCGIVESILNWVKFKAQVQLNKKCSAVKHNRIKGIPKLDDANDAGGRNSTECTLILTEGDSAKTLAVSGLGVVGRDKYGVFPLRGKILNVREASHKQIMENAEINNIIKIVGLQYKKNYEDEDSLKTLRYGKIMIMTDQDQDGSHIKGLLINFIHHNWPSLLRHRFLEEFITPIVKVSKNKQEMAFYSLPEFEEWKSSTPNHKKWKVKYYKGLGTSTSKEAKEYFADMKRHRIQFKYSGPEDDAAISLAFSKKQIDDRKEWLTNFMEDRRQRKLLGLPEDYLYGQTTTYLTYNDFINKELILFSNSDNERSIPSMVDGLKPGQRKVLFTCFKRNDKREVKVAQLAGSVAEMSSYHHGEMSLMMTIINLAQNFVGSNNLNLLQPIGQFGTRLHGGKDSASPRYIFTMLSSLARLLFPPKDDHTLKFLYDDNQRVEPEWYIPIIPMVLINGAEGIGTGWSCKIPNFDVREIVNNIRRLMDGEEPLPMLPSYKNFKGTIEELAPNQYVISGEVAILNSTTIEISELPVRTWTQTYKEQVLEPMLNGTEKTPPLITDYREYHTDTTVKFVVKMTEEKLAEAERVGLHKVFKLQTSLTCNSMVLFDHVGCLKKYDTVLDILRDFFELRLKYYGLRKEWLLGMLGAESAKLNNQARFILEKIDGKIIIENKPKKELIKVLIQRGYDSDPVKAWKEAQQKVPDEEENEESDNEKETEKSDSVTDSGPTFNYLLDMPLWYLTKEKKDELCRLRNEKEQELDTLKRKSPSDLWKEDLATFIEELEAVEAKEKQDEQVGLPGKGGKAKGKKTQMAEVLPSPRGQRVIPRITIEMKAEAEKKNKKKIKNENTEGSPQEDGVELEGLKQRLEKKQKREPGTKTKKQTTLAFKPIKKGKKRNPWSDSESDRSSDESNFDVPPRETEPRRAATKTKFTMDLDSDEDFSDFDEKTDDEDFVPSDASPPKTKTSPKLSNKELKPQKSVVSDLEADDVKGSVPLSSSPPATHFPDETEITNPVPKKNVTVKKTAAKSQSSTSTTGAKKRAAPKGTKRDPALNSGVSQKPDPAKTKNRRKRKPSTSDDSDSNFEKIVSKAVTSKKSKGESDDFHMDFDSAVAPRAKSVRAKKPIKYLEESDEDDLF
SMILES,IC50 [1],IC50 [2],Hypochromic (%) (CT DNA),IC50 [3],IC50 [4],inhibition of Topo IIα enzymatic activity (in words) [5],% of enzyme inhibition [5],inhibition at 100 µM [5]
"Oc1ccc(/C=N/NC(=S)Nc2c3ccccc3nc3ccccc23)cc1 [CL-07, (E)-N-(acridin-9-yl)-2-(4-hydroxybenzylidene)hydrazine-1-carbothioamide]",19.8 µM,50.7 µM,25.52%,43.4 µM,39.7 µM,did not show inhibition capacity; also recorded: could not inhibit Topo IIα,,
"COc1ccc2nc3cc(Cl)ccc3c(NC(=S)N/N=C/c3cccc(O)c3)c2c1 [DL-08, (E)-N-(6-chloro-2-methoxyacridin-9-yl)-2-(3-hydroxybenzylidene)hydrazine-1-carbothioamide]",14.8 µM,21.3 µM,14.79%,14.4 µM,24.2 µM,able to inhibit the enzymatic activity,79%,> 74%
"COc1ccc2nc3cc(Cl)ccc3c(NC(=S)N/N=C/c3ccccc3)c2c1 [DL-01, (E)-2-benzylidene-N-(6-chloro-2-methoxyacridin-9-yl)hydrazine-1-carbothioamide]",39.6 µM,21.9 µM,12.89%,37 µM,> 60 µM,able to inhibit the enzymatic activity,77%,> 74%
